Experimental data taken from patent publication US4695545A, “Culture and process for producing A41030 antibiotics” (Eli Lilly and Company, priority 1984, dated 1987).

Columns and labels:
Type in all cases: cell-based
[1] = test system: Peptostreptococcus intermedius; experiment: MIC anaerobic bacteria, agar-dilution; conditions: Peptostreptococcus intermedius 1264
[2] = test system: Bacteroides thetaiotaomicron; experiment: MIC anaerobic bacteria, agar-dilution; conditions: Bacteroides thetaiotaomicron 1438
Clostridium difficile = experiment: MIC against Clostridium difficile strains, agar-dilution
Source text: The A41030 antibiotic factors A, B, C, D, E, F, and G, are also active against a number of strains of Clostridium difficile, as determined by the agardilution method.

[3] = test system: Staphylococcus epidermidis; experiment: MIC aerobic bacteria, standard agar-dilution assay

Substance: A41030 factor B
- MIC [1]: 0.5 µg/mL
- MIC [2]: 32 µg/mL
- MIC (Clostridium difficile; Clostridium difficile 78): 0.5 µg/mL
- MIC (Clostridium difficile; Clostridium difficile 107B): 0.5 µg/mL
- MIC (Clostridium difficile; Clostridium difficile 111F): 1.0 µg/mL
- MIC (Clostridium difficile; Clostridium difficile 1153): 1.0 µg/mL
- MIC (Clostridium difficile; Clostridium difficile 2634): 1.0 µg/mL
- MIC (Clostridium difficile; Clostridium difficile 3424-5B): 1.0 µg/mL
- MIC (Clostridium difficile; Clostridium difficile 3816): 1.0 µg/mL
- MIC (Clostridium difficile; Clostridium difficile 3950D): 1.0 µg/mL
- MIC (Clostridium difficile; Clostridium difficile 6890): 1.0 µg/mL
- MIC (Clostridium difficile; Clostridium difficile 8484): 1.0 µg/mL
- MIC (Clostridium difficile; Clostridium difficile A-194): 1.0 µg/mL
- MIC (Clostridium difficile; Clostridium difficile A-195): 1.0 µg/mL
- MIC (Clostridium difficile; Clostridium difficile A-196): 1.0 µg/mL
- MIC (Clostridium difficile; Clostridium difficile A-279): 1.0 µg/mL
- MIC (Clostridium difficile; Clostridium difficile A-280): 0.5 µg/mL
- MIC (Clostridium difficile; Clostridium difficile A-281): 1.0 µg/mL
- MIC (Clostridium difficile; Clostridium difficile WAL-2112): 1.0 µg/mL
- MIC (Clostridium difficile; Clostridium difficile WAL-3657): 1.0 µg/mL
- MIC (Clostridium difficile; Clostridium difficile WAL-4268): 0.5 µg/mL
- MIC ([3]; Staphylococcus epidermidis EPI1, 24 hours): 0.125 µg/mL
- MIC ([3]; Staphylococcus epidermidis EPI2, 24 hours): 0.5 µg/mL
